One series relates to HSV-1. The experiment in a line: HSV-1 antiviral activity assay (Table 4). Format: cell-based, Herpes simplex type 1 (HSV-1). Also noted: key to the marks not given beside the values. Here is the method:
(§1) a. Herpes simplex type 1 (HSV-1) replicates in the CV-1 cell line. CV-1 is a fibroblast-like cell culture derived from primary African green monkey cells.
(§2) a. Dilute the cells with EMEM to 4×10^5 cells/ml.
(§3) b. See 24-well trays with 0.5 ml per well. Cell concentration is […] cells.
(§4) c. Incubate at 37 C. for 1.5 hours.
(§5) d. The wells can be used over the next several days beginning the day after seeding (preferably 2, 3, or 4).
(§6) a. Remove medium from wells.
(§7) b. Infect well with at least 25 and no more than 80 plaque forming units (PFU) of virus.
(§8) c. Incubate infected cells at 37 C. for 1.5 hrs.
(§9) d. Pour off supernatant at end of incubation period.
(§10) e. Add 0.5 ml of methylcellulose overlay medium (MCO). MCO is a maintenance medium without phenol red made with 1% 4000 centipose methylcellulose. FBS is used at 5% level.
(§11) a. For drug evaluation wet filter paper discs (6 mm dia.) with approx. 0.02 ml of test compound. Allow solvent to evaporate for 20-30 mins. at ambient temperature, then place discs in the well containing CV-1 cells, virus and MCO.
(§12) b. Incubate tissue culture plates for 48 hrs. at 37 C.
(§13) c. After 48 hrs. place 0.5 ml NRMCO on each well. (NRMCO is a maintenance overlay medium without phenol red containing 0.1 mg neutral red dye/ml and 2% 15 Cps. methylcellulose.
(§14) d. Incubate plates at 37 C. and read the following day. Antiviral activity should be observed from two parameters. One is actual reduction in the number of plaques and two is the diminution in plaque diameter.
(§15) a. Antiviral activity (AVA) is scored from 0 to +++.
(§16) +++=complete inhibiton of plaque formation

In series [1] the test system is P388 murine leukemia cells. The experiment in a line: P388 in vitro antitumor screen (MTT, 48 h). The class given is cell-based. Here is the method:
Cell Culture. P388 murine leukemia cells, obtained from the National Cancer Institute, Bethesda, MD, were maintained at 37° C. in 5% CO2 in humidified air. Growth medium was Roswell Park Memorial Institute medium 1640 supplemented with 10% heat-inactivated horse serum. Stock cultures of P388 cells were grown in antibiotic-free growth medium and were subcultured (10^5 cells/ml, 25 ml cultures in T-25 plastic tissue culture flasks) every 2-3 days. […] An appropriate volume of the dilution was transferred to duplicate wells in a 96-well plate, evaporated to dryness, and 200 μl of growth medium containing cells at a density of 1×10^5 cells/ml was added per well. […] For daily quality control, each technician determines the IC50 of fluorouracil for inhibition of P388 cell proliferation. After 48-hour incubations, cell number was determined with the MTT assay (below), calculated as a percent of untreated cell growth, converted to percent inhibition, and reported to the chemist requesting the screen.
Determination of IC50 Values. The initial determination of an IC50 value for inhibition of P388 cell proliferation with a crude, semipure, or pure sample was made by diluting the sample in methanol to the appropriate concentration and then serial 1:1 dilutions were made in duplicate in a 96-well plate, such that the final concentrations in the assay were […] μg/ml. After solvent was evaporated to dryness, cells were added to each well as described above. After 48-hour incubations, cell numbers were determined with the MTT assay, converted to percent control, plotted versus the log of the sample concentration. Curves were fitted by least-squares linear regression of logit-transformed data and the concentration of sample that inhibited cell proliferation by 50% was reported to the chemist requesting the screen.
MTT Assay for Cell Number. MTT or 3-(4,5-Dimethylthiazol-2-yl)-2,5-diphenyl-tetrazolium bromide is used in an established method (J. Immunol. Methods, 1983, 65: 55-63) to enumerate cells rather than "Coulter counting".

In series [2] the test system is CV-1 cells. As to the kind of experiment: Cytotoxicity in antiviral assay (Table 4). On the set-up: key: 0 = no cytotoxicity, 16 = complete cell destruction. Format: cell-based, African green monkey. On the procedure:
(§17) a. Herpes simplex type 1 (HSV-1) replicates in the CV-1 cell line. CV-1 is a fibroblast-like cell culture derived from primary African green monkey cells. a. For drug evaluation wet filter paper discs (6 mm dia.) with approx. 0.02 ml of test compound. Allow solvent to evaporate for 20-30 mins. at ambient temperature, then place discs in the well containing CV-1 cells, virus and MCO. b. Incubate tissue culture plates for 48 hrs. at 37 C. c. After 48 hrs. place 0.5 ml NRMCO on each well. (NRMCO is a maintenance overlay medium without phenol red containing 0.1 mg neutral red dye/ml and 2% 15 Cps. methylcellulose. b. Cytotoxicity (Cyt) 0=no visual or microscopic cytotoxicity 16=complete cell destruction 8, 10, 12, 14=partial cytotoxicity.

Series [3] has as its system CV-1 cells. As to the kind of experiment: Cytotoxicity in antiviral disc assay (Table 3). The class given is cell-based, African green monkey. On the set-up: key: 0 = no cytotoxicity, 16 = complete cell destruction. On the procedure:
as §17

Series [4] is described as follows: Biological activities of synthesized versus natural topsentin.
For series [5], the system named is T47D human breast carcinoma cells. The experiment in a line: Human tumor cell line assay, T47D. Format: cell-based. Conditions: 120 h, read-out: T47D: cell density compared with control growth. On the procedure:
(§18) HCT-8 human colon tumor cells are grown in RPM1 1640 medium (GIBCO). A549 human lung carcinoma cells and T47D human breast carcinoma cells are cultured in Dulbecco medium (Biologos, Inc.). All media are supplemented with 10% fetal bovine serum and contain 50 μg/ml gentamicin. All human tumor cell lines are incubated in 5% CO2 at 37° C. and subcultured once a week.
(§19) 2. Incubate in a CO2 -incubator for 48 hours.
(§20) 3. Add compound to each well and incubate for an additional 120 hours.
(§21) 4. Discard medium and stain with methylene blue (HCT-8) or crystal violet (A549 & T47D).
(§22) 5. Compare density of drug-treated well with that of the control (no drug added) as follows: ND (not detectable) >90%, 1+=75-90%, 2+=50-74%, 3+=25-49%, 4+=<25% of control growth.
(§23) Final conc. of Vinblastine or Vincristine control (use 2 μl/assay).
(§24) For solvents other than water, allow solvent to evaporate from tube or well in hood. Always run a solvent control in duplicate in the last two wells of each plate or four tubes for each rack of 72 or fewer tubes. Also run four wells or tubes with media and cells only per run of plates or tubes. When using volumes of aqueous solutions greater than 200 ml, dry sample and bring to desired concentration in media.

For a further series, the system named is P388 leukemia. Format: in vivo, BDF1 mice. To be noted: days 1-5, mice. On the procedure: P388 leukemia obtained from DBA/2 mice was inoculated ip into BDF1 mice. The inoculum level was 10^6 cells in 0.1 ml. Mice were randomized on day 1 into groups of six mice since bacteriological check of tumor was negative. Test materials were dissolved or suspended in sterile 0.98% NaCl solution with the aid of absolute ethanol and "Tween-80", then administered ip, qD1-5, in a volume of 0.5 ml/mouse. Mice were weighed on days 1 & 5 to provide evidence of toxicity and deaths were recorded daily. Each test included appropriate numbers of untested control mice, one-dose level of the positive reference compound 5-fluorouracil and test material (four dose levels each). Test material were prepared fresh on day 1 and administered daily for five days. Quantity and consistency of test material precluded fresh preparation daily. Doses were derived from prior single treatment acute toxicity assays. The endpoints for therapeutic evaluation were mean and median survival time and long-term survivors on day 30. A 25% percent increase in life span (%ILS) was considered evidence of significant activity.

In series [6] the test system is Herpes simplex virus type 1 (HSV-1). The experiment in a line: Antiviral disc assay for HSV-1 (Table 3). The class given is cell-based, Herpes simplex type 1 (HSV-1). On the procedure: as §1, §2, §3, §4, §5, §6, §7, §8, §9, §10, §11, §12, §13, §14, §15, §16
Series [7] relates to A549 human lung carcinoma cells. The experiment in a line: Human tumor cell line assay, A549. Conditions: 120 h, read-out: A549: cell density compared with control growth; for activity at 500 fg/mL: 0.5 pg/ml. Format: cell-based. On the procedure: as §18, §19, §20, §21, §22, §23, §24
Where [8] appears, read: Mus musculus, P388 murine leukemia cells, 48 h, MTT.

The structures appear in SMILES notation. In brackets after ≈: the same amount, converted by molar mass. Read-outs that look alike come from different tables or passages of the source. A value given as a limit tells only on which side of the number the result lay.

On to `O=C(C1=NC(c2c[nH]c3ccccc23)CN1)c1c[nH]c2cc(Br)ccc12` (stereo not drawn) [Compound 3, 4,5-dihydro-6"-deoxybromotopsentin], for which the AVA result with HSV-1 (Table 4, 20 μg/disk) is given as “+++”. The “P388 IC50” value in series [1] (P388 murine leukemia cells, 48 h, MTT) was 4.0 µg/mL.

Consider `O=C(c1nc(-c2c[nH]c3cc(O)ccc23)c[nH]1)c1c[nH]c2ccccc12` [Compound 4, Isotopsentin], for which, in the series with HSV-1 (Table 4, 20 μg/disk), the AVA result is given as “+++”. Moreover, in [1] (setting [8]), the IC50 was 4 µg/mL (≈ 11.7 µM). Further, the CYT. is on record as 0 in the series on CV-1 cells [2] (Table 4, 2 μg/disk) and 0 with CV-1 cells [2] (Table 4, 20 μg/disk).

For `O=C(c1nc(-c2c[nH]c3cc(O)ccc23)c[nH]1)c1c[nH]c2cc(O)ccc12` [Compound 5, Hydroxytopsentin], the AVA result in the series with HSV-1 (Table 4, 20 μg/disk) is “++”. Also, the IC50 in series [1] (setting [8]) came to 0.3 µg/mL (≈ 0.837 µM). Besides, the CYT. with CV-1 cells [2] (Table 4, 2 μg/disk) was found to be 0; in the series with CV-1 cells [2] (Table 4, 20 μg/disk), 0; in the series on CV-1 cells [3] (Table 3, 20 ug/disk) it was 0.

Consider `O=c1[nH]cc(F)c(=O)[nH]1` [fluorouracil, 5-fluorouracil, reference compound], for which, in [1] (Mus musculus, P388, read-out: inhibition of cell replication), the inhibition at 0.2 µg/mL is approximately 95%.

On to `O=C(c1nc(-c2c[nH]c3ccccc23)c[nH]1)c1c[nH]c2cc(O)ccc12` [Compound 1, Topsentin], for which the AVA entry in the series with HSV-1 (Table 4, 2 μg/disk) is “+++”; in the series with HSV-1 (Table 4, 20 μg/disk), “+++”; in series [6] (Table 3, 50 ug/disk) it was “+”; in [6] (Table 3, 200 ug/disk), “++”. The “biological activities compared with natural topsentin” value in series [4] is “identical with natural topsentin in spectral data and in biological activities”. The IC50 in series [1] (setting [8]) is 2 µg/mL (≈ 5.84 µM). Moreover, in series [5], the activity at 5 pg/mL was 50 to 74%. Moreover, the activity at 20 pg/mL in series [5] was less than 25%. Moreover, the activity at 50 pg/mL in series [5] and in series [7] was less than 25% throughout. Further, the activity at 500 fg/mL in series [5] and in series [7] was more than 90% each time. Moreover, the “Survival % T/C” value in the series with P388 leukemia (37.5 mg/kg ip) is on record as 111%; in the series on P388 leukemia (75 mg/kg ip), 116%; with P388 leukemia (150 mg/kg ip), 132%; with P388 leukemia (300 mg/kg ip), 110%. Also, the CYT. with CV-1 cells [2] (Table 4, 0.2 μg/disk) turned out to be 0; with CV-1 cells [2] (Table 4, 2 μg/disk) it was 0; in the series with CV-1 cells [2] (Table 4, 20 μg/disk), 0; in the series with CV-1 cells [3] (Table 3, 20 ug/disk) it was 0; in the series with CV-1 cells [3] (Table 3, 50 ug/disk) it was 0; with CV-1 cells [3] (Table 3, 200 ug/disk), 0.

On to `O=C(c1nc(-c2c[nH]c3ccc(O)cc23)c[nH]1)c1c[nH]c2ccccc12` [Compound 8, Neoisotopsentin], for which the IC50 in series [1] (setting [8]) came to 1.8 µg/mL (≈ 5.26 µM). Besides, the CYT. in the series with CV-1 cells [2] (Table 4, 20 μg/disk) is reported as 0; with CV-1 cells [3] (Table 3, 20 ug/disk) it was 0.

In series [1] (setting [8]), `O=C(c1nc(-c2c[nH]c3ccccc23)c[nH]1)c1c[nH]c2ccc(O)cc12` [Compound 7, Neotopsentin] gave an IC50 of 2.5 µg/mL (≈ 7.3 µM). Also, the CYT. with CV-1 cells [2] (Table 4, 20 μg/disk) was determined as 0; in the series on CV-1 cells [3] (Table 3, 20 ug/disk) it was 0.

On to `O=C(c1nc(-c2c[nH]c3cc(Br)ccc23)c[nH]1)c1c[nH]c2cc(O)ccc12` [Compound 2, Bromotopsentin], for which the AVA result in the series with HSV-1 (Table 4, 10 μg/disk) is on record as “++”; in series [6] (Table 3, 200 ug/disk), “++”. In series [1] (setting [8]), this compound displayed an IC50 of 7 µg/mL (≈ 16.6 µM). Further, the activity at 5 pg/mL in series [5] was 50 to 74%; in series [7] (5 pg/ml), more than 90%. Besides, the activity at 20 pg/mL in [5] was in the range of 25 to 49%. For the same compound, the activity at 50 pg/mL in series [5] and in series [7] was less than 25% each time. The activity at 500 fg/mL in [5] and in [7] was more than 90% throughout. Besides, the figures for the “Survival % T/C” value with P388 leukemia (37.5 mg/kg ip), in the series with P388 leukemia (75 mg/kg ip) and in the series with P388 leukemia (150 mg/kg ip) were 105%, 111% and 116%, respectively. Moreover, the CYT. is recorded as 0 in the series with CV-1 cells [2] (Table 4, 5 μg/disk); 0 with CV-1 cells [2] (Table 4, 10 μg/disk); 0 in the series on CV-1 cells [3] (Table 3, 50 ug/disk); 0 in the series with CV-1 cells [3] (Table 3, 200 ug/disk).

Regarding `O=C(c1nc(-c2c[nH]c3ccc(O)cc23)c[nH]1)c1c[nH]c2ccc(O)cc12` [Compound 9, Neohydroxytopsentin], the IC50 in [1] (setting [8]) is more than 20 µg/mL. Further, the CYT. in the series with CV-1 cells [2] (Table 4, 20 μg/disk) was 0; in the series with CV-1 cells [3] (Table 3, 20 ug/disk), 0.

The values above are taken from patent US4866084A, “Topsentin compounds effective against viruses and certain tumors” (Harbor Branch Oceanographic Institution, Inc., priority 1988, dated 1989).
